Assay results published in patent US20110082130A1 (LIGAND PHARMACEUTICALS, INC., priority 2006, published 2011).

Biological target: T1, chimeric human H3 receptor (Homo sapiens, UniProt Q9Y5N1)
T1 construct: made in house; host or cells: Sf9 insect cells (baculovirus); P2 membrane preparation
Assay: Chimeric human H3 receptor GTP binding assay (agonist-stimulated GTP-gamma35S binding, Example 7)
Format: biochemical
Settings: Table II; "*" = Ki in assay of Example 7 less than 1 micromolar
Outline: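 Sf9 membranes co-expressing chimeric human H3 receptor and heterotrimeric G-protein, 35 μg/tube, in pH 7.4 Tris buffer with 10 μM GDP. Test compounds (10^−10–10^−6 M) competed against 1 μM histamine, […] GTP-gamma35S, 60 min at room temperature. Filter-bound radioactivity counted; IC50 converted to Ki by Cheng-Prusoff. Agonism/inverse agonism tested without histamine (EC50).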

T1 sequence (Q9Y5N1 with tags, fused parts or gaps): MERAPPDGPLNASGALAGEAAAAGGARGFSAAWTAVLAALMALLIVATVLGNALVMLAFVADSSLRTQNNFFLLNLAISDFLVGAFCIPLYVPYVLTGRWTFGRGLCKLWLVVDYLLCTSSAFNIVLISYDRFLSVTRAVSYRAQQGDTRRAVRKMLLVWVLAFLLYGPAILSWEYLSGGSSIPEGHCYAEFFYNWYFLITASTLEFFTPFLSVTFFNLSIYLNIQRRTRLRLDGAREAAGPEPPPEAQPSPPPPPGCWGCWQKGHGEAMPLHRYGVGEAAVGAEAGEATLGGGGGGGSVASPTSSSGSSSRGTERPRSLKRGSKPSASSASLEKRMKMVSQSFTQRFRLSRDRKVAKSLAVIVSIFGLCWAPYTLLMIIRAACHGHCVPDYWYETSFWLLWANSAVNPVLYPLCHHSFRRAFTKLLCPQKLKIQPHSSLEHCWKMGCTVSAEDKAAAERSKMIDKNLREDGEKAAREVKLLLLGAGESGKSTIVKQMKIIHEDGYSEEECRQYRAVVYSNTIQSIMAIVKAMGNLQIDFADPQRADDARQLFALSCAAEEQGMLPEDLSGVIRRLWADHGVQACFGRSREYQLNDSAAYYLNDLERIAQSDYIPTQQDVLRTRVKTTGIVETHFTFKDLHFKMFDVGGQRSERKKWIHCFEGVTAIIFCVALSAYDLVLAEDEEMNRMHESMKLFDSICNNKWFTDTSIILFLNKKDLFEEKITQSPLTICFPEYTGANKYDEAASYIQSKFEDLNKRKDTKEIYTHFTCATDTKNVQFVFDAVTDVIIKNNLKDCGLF

SMILES	Ki
COc1ncc(-n2cc3c(n2)CCN(CC(=O)N2CCN(C4CCC4)CC2)C3)cn1 [Compound 256, 5-[2-(4-cyclobutylpiperazin-1-yl)-2-oxoethyl]-2-(2-methoxypyrimidin-5-yl)-4,5,6,7-tetrahydro-2H-pyrazolo[4,3-c]pyridine]	< 1 µM
COc1ncc(-n2ncc3c2CCN(CC(=O)N2CCN(C4CCC4)CC2)C3)cn1 [Compound 257, 5-[2-(4-cyclobutylpiperazin-1-yl)-2-oxoethyl]-1-(2-methoxypyrimidin-5-yl)-4,5,6,7-tetrahydro-1H-pyrazolo[4,3-c]pyridine]	< 1 µM
O=C(CN1CCc2nn(-c3ccc(N4CCCC4)nn3)cc2C1)N1CCN(C2CCC2)CC1 [Compound 258, 5-[2-(4-cyclobutylpiperazin-1-yl)-2-oxoethyl]-2-(6-pyrrolidin-1-ylpyridazin-3-yl)-4,5,6,7-tetrahydro-2H-pyrazolo[4,3-c]pyridine]	< 1 µM
CN(C)c1ccc(-n2cc3c(n2)CCN(CC(=O)N2CCN(C4CCC4)CC2)C3)nn1 [Compound 259, 6-{5-[2-(4-cyclobutylpiperazin-1-yl)-2-oxoethyl]-4,5,6,7-tetrahydro-2H-pyrazolo[4,3-c]pyridin-2-yl}-N,N-dimethylpyridazin-3-amine]	< 1 µM
O=C(CN1CCc2nn(-c3ccc(C4CC4)nn3)cc2C1)N1CCN(C2CCC2)CC1 [Compound 260, 5-[2-(4-cyclobutylpiperazin-1-yl)-2-oxoethyl]-2-(6-cyclopropylpyridazin-3-yl)-4,5,6,7-tetrahydro-2H-pyrazolo[4,3-c]pyridine]	< 1 µM
Cc1ccc(-n2cc3c(n2)CCN(CC(=O)N2CCN(C4CCC4)CC2)C3)nc1 [Compound 261, 5-[2-(4-cyclobutylpiperazin-1-yl)-2-oxoethyl]-2-(5-methylpyridin-2-yl)-4,5,6,7-tetrahydro-2H-pyrazolo[4,3-c]pyridine]	< 1 µM
Cn1cc(-n2cc3c(n2)CCN(CC(=O)N2CCN(C4CCC4)CC2)C3)ccc1=O [Compound 262, 5-{5-[2-(4-cyclobutylpiperazin-1-yl)-2-oxoethyl]-4,5,6,7-tetrahydro-2H-pyrazolo[4,3-c]pyridin-2-yl}-1-methylpyridin-2(1H)-one]	< 1 µM
Cn1cc(-n2ncc3c2CCN(CC(=O)N2CCN(C4CCC4)CC2)C3)ccc1=O [Compound 263, 5-{5-[2-(4-cyclobutylpiperazin-1-yl)-2-oxoethyl]-4,5,6,7-tetrahydro-1H-pyrazolo[4,3-c]pyridin-1-yl}-1-methytpyridin-2(1H)-one]	< 1 µM
Cc1ccc(-n2cc3c(n2)CN(CC(=O)N2CCN(C4CCC4)CC2)CC3)nn1 [Compound 264, 6-[2-(4-cyclobutylpiperazin-1-yl)-2-oxoethyl]-2-(6-methylpyridazin-3-yl)-4,5,6,7-tetrahydro-2H-pyrazolo[3,4-c]pyridine]	< 1 µM
O=C(CN1CCc2sccc2C1)N1CCN(C2CCC2)CC1 [Compound 265, 5-[2-(4-cyclobutylpiperazin-1-yl)-2-oxoethyl]-4,5,6,7-tetrahydrothieno[3,2-c]pyridine]	< 1 µM
Cn1cc(-c2ccc3c(c2)CCN(CC(=O)N2CCN(C4CCC4)CC2)C3)cnc1=O [Compound 266, 5-{2-[2-(4-cyclobutylpiperazin-1-yl)-2-oxoethyl]-1,2,3,4-tetrahydroisoquinolin-6-yl}-1-methylpyrimidin-2(1H)-one]	< 1 µM
O=C(CN1CCc2nn(-c3cncc(Cl)n3)cc2C1)N1CCN(C2CCC2)CC1 [Compound 267, 2-(6-chloropyrazin-2-yl)-5-[2-(4-cyclobutylpiperazin-1-yl)-2-oxoethyl]-4,5,6,7-tetrahydro-2H-pyrazolo[4,3-c]pyridine]	< 1 µM
O=C(CN1CCc2nn(-c3cncc(N4CCCC4)n3)cc2C1)N1CCN(C2CCC2)CC1 [Compound 268, 5-[2-(4-cyclobutylpiperazin-1-yl)-2-oxoethyl]-2-(6-pyrrolidin-1-ylpyrazin-2-yl)-4,5,6,7-tetrahydro-2H-pyrazolo[4,3-c]pyridine]	< 1 µM
O=C(CN1CCc2sc(-c3cncnc3)cc2C1)N1CCN(C2CCC2)CC1 [Compound 269, 5-[2-(4-cyclobutylpiperazin-1-yl)-2-oxoethyl]-2-pyrimidin-5-yl-4,5,6,7-tetrahydrothieno[3,2-c]pyridine]	< 1 µM
Cn1cc(-c2cc3c(s2)CCN(CC(=O)N2CCN(C4CCC4)CC2)C3)ccc1=O [Compound 270, 5-{5-[2-(4-cyclobutylpiperazin-1-yl)-2-oxoethyl]-4,5,6,7-tetrahydrothieno[3,2-c]pyridin-2-yl}-1-methylpyridin-2(1H)-one]	< 1 µM
N#Cc1cncc(-n2cc3c(n2)CCN(CC(=O)N2CCN(C4CCC4)CC2)C3)n1 [Compound 271, 6-{5-[2-(4-cyclobutylpiperazin-1-yl)-2-oxoethyl]-4,5,6,7-tetrahydro-2H-pyrazolo[4,3-c]pyridin-2-yl}pyrazine-2-carbonitrile]	< 1 µM
O=C(CN1CCc2nn(-c3cncc(C4CC4)n3)cc2C1)N1CCN(C2CCC2)CC1 [Compound 272, 5-[2-(4-cyclobutylpiperazin-1-yl)-2-oxoethyl]-2-(6-cyclopropylpyrazin-2-yl)-4,5,6,7-tetrahydro-2H-pyrazolo[4,3-c]pyridine]	< 1 µM

Second part, the molecule after the results:

Ki	SMILES
< 1 µM	COc1ccc(-n2cc3c(n2)CCN(CC(=O)N2CCN(C4CCC4)CC2)C3)cc1 [Compound 238, 5-[2-(4-cyclobutylpiperazin-1-yl)-2-oxoethyl]-2-(4-methoxyphenyl)-4,5,6,7-tetrahydro-2H-pyrazolo[4,3-c]pyridine]
< 1 µM	CC1(C)CN(CC(=O)N2CCN(C3CCC3)CC2)Cc2cnc(N3CCOCC3)nc21 [Compound 239, 6-[2-(4-cyclobutylpiperazin-1-yl)-2-oxoethyl]-8,8-dimethyl-2-morpholin-4-yl-5,6,7,8-tetrahydropyrido[4,3-d]pyrimidine]
< 1 µM	O=C(CN1CCc2nc(N3CCOCC3)cnc2C1)N1CCN(C2CCC2)CC1 [Compound 240, 6-[2-(4-cyclobutylpiperazin-1-yl)-2-oxoethyl]-2-morpholin-4-yl-5,6,7,8-tetrahydropyrido[3,4-b]pyrazine]
< 1 µM	O=C(CN1CCc2ncc(N3CCOCC3)nc2C1)N1CCN(C2CCC2)CC1 [Compound 241, 6-[2-(4-cyclobutylpiperazin-1-yl)-2-oxoethyl]-3-morpholin-4-yl-5,6,7,8-tetrahydropyrido[3,4-b]pyrazine]
< 1 µM	O=C(CN1CCc2nc(N3CCC(F)(F)C3)ccc2C1)N1CCN(C2CCC2)CC1 [Compound 242, 6-[2-(4-cyclobutylpiperazin-1-yl)-2-oxoethyl]-2-(3,3-difluoropyrrolidin-1-yl)-5,6,7,8-tetrahydro-1,6-naphthyridine]
< 1 µM	NC(=O)c1cnn(-c2ccc3c(c2)CCN(CC(=O)N2CCN(C4CCC4)CC2)C3)c1 [Compound 243, 1-{2-[2-(4-cyclobutylpiperazin-1-yl)-2-oxoethyl]-1,2,3,4-tetrahydroisoquinolin-6-yl}-1H-pyrazole-4-carboxamide]
< 1 µM	N#Cc1cnn(-c2ccc3c(c2)CCN(CC(=O)N2CCN(C4CCC4)CC2)C3)c1 [Compound 244, 1-{2-[2-(4-cyclobutylpiperazin-1-yl)-2-oxoethyl]-1,2,3,4-tetrahydroisoquinolin-6-yl}-1H-pyrazole-4-carbonitrile]
< 1 µM	CCN(C)c1ccc2c(n1)CCN(CC(=O)N1CCN(C3CCC3)CC1)C2 [Compound 245, 6-[2-(4-cyclobutylpiperazin-1-yl)-2-oxoethyl]-N-ethyl-N-methyl-5,6,7,8-tetrahydro-1,6-naphthyridin-2-amine]
< 1 µM	CN(C)c1ncc2c(n1)CCN(CC(=O)N1CCN(C3CCC3)CC1)C2 [Compound 246, 6-[2-(4-cyclobutylpiperazin-1-yl)-2-oxoethyl]-N,N-dimethyl-5,6,7,8-tetrahydropyrido[4,3-d]pyrimidin-2-amine]
< 1 µM	O=C(CN1CCc2nc(-c3ccccc3)ncc2C1)N1CCN(C2CCC2)CC1 [Compound 247, 6-[2-(4-cyclobutylpiperazin-1-yl)-2-oxoethyl]-2-phenyl-5,6,7,8-tetrahydropyrido[4,3-d]pyrimidine]
< 1 µM	O=C(CN1CCc2nn(-c3ncccn3)cc2C1)N1CCN(C2CCC2)CC1 [Compound 248, 5-[2-(4-cyclobutylpiperazin-1-yl)-2-oxoethyl]-2-pyrimidin-2-yl-4,5,6,7-tetrahydro-2H-pyrazolo[4,3-c]pyridine]
< 1 µM	CC(=O)Cc1ccc2c(c1)CCN(CC(=O)N1CCN(C3CCC3)CC1)C2 [Compound 249, 1-{2-[2-(4-cyclobutylpiperazin-1-yl)-2-oxoethyl]-1,2,3,4-tetrahydroisoquinolin-6-yl}acetone]
< 1 µM	CC(O)Cc1ccc2c(c1)CCN(CC(=O)N1CCN(C3CCC3)CC1)C2 (stereo not drawn) [Compound 250, 1-{2-[2-(4-cyclobutylpiperazin-1-yl)-2-oxoethyl]-1,2,3,4-tetrahydroisoquinolin-6-yl}propan-2-ol]
< 1 µM	O=C(CN1CCc2c(cnn2-c2cncnc2)C1)N1CCN(C2CCC2)CC1 [Compound 251, 5-[2-(4-cyclobutylpiperazin-1-yl)-2-oxoethyl]-1-pyrimidin-5-yl-4,5,6,7-tetrahydro-1H-pyrazolo[4,3-c]pyridine]
< 1 µM	O=C(CN1CCc2nn(-c3cncnc3)cc2C1)N1CCN(C2CCC2)CC1 [Compound 252, 5-[2-(4-cyclobutylpiperazin-1-yl)-2-oxoethyl]-2-pyrimidin-5-yl-4,5,6,7-tetrahydro-2H-pyrazolo[4,3-c]pyridine]
< 1 µM	O=C(CN1CCc2nn(-c3cccnn3)cc2C1)N1CCN(C2CCC2)CC1 [Compound 255, 5-[2-(4-cyclobutylpiperazin-1-yl)-2-oxoethyl]-2-pyridazin-3-yl-4,5,6,7-tetrahydro-2H-pyrazolo[4,3-c]pyridine]
